Experimental data taken from PubChem BioAssay AID2060625 (Molecular Pharmacology Branch, DTP, NCI, 2025).
Several values for one entry are separate records, joined by “and”; a condition that tells them apart may be missing. Equal values may be shown once.

System: 186277-243-T-J2-PDC spheroids with HUVEC/MSC, viability
Assay: Anticancer human tumor 186277-243-T-J2-PDC patient-derived colon adenocarcinoma cell line growth inhibition [CLK]
Details: for viability, T/C: stronger effect = lower value
Summary of the method: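 Patient-derived tumor cells grown as complex spheroids with HUVEC endothelial cells and mesenchymal stem cells, treated with drug combinations. Concentrations descend in half-log steps from near clinical Cmax, or from 10 microM if Cmax unknown.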

[1] = curve of first compound, second compound 0.0316 µM
[2] = curve of first compound, second compound 0.1 µM
[3] = curve of first compound, second compound 0.316 µM
[4] = curve of first compound, second compound 1 µM
[5] = curve of first compound, second compound 3.16 µM
[6] = curve of first compound, second compound 10 µM
[7] = second compound 0.0316 µM, first compound 0.0316 µM
[8] = second compound 0.0316 µM, first compound 0.1 µM
[9] = second compound 0.0316 µM, first compound 0.316 µM
[10] = second compound 0.0316 µM, first compound 1 µM
[11] = second compound 0.0316 µM, first compound 3.16 µM
[12] = second compound 0.0316 µM, first compound 10 µM
[13] = second compound 0.1 µM, first compound 0.0316 µM
[14] = second compound 0.1 µM, first compound 0.1 µM
[15] = second compound 0.1 µM, first compound 0.316 µM
[16] = second compound 0.1 µM, first compound 1 µM
[17] = second compound 0.1 µM, first compound 3.16 µM
[18] = second compound 0.1 µM, first compound 10 µM
[19] = second compound 0.316 µM, first compound 0.0316 µM
[20] = second compound 0.316 µM, first compound 0.1 µM
[21] = second compound 0.316 µM, first compound 0.316 µM
[22] = second compound 0.316 µM, first compound 1 µM
[23] = second compound 0.316 µM, first compound 3.16 µM
[24] = second compound 0.316 µM, first compound 10 µM
[25] = second compound 1 µM, first compound 0.0316 µM
[26] = second compound 1 µM, first compound 0.1 µM
[27] = second compound 1 µM, first compound 0.316 µM
[28] = second compound 1 µM, first compound 1 µM
[29] = second compound 1 µM, first compound 3.16 µM
[30] = second compound 1 µM, first compound 10 µM
[31] = second compound 3.16 µM, first compound 0.0316 µM
[32] = second compound 3.16 µM, first compound 0.1 µM
[33] = second compound 3.16 µM, first compound 0.316 µM
[34] = second compound 3.16 µM, first compound 1 µM
[35] = second compound 3.16 µM, first compound 3.16 µM
[36] = second compound 3.16 µM, first compound 10 µM
[37] = second compound 10 µM, first compound 0.0316 µM
[38] = second compound 10 µM, first compound 0.1 µM
[39] = second compound 10 µM, first compound 0.316 µM
[40] = second compound 10 µM, first compound 1 µM
[41] = second compound 10 µM, first compound 3.16 µM
[42] = second compound 10 µM, first compound 10 µM
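Also: compound exposure lasted seven days before readout.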
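For viability, T/C in this document: 100% = DMSO vehicle control wells.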

CC1COCCN1c1cc(C2(S(C)(=N)=O)CC2)nc(-c2ccnc3[nH]ccc23)n1 (centres undefined) + CN1CCN(c2cc(C(=O)Nc3cc4cc(-c5cnn(C)c5)ccc4cn3)ccn2)CC1
IC50 [1]: 2250 nM
IC50 [2]: 1320 nM
IC50 [3]: < 31.6 nM
IC50 [4]: < 31.6 nM
IC50 [5]: < 31.6 nM
IC50 [6]: < 31.6 nM
viability, T/C [7]: 93.4%
viability, T/C [8]: 86.8%
viability, T/C [9]: 105%
viability, T/C [10]: 95%
viability, T/C [11]: 31.2%
viability, T/C [12]: 11.2%
viability, T/C [13]: 76.9%
viability, T/C [14]: 80.5%
viability, T/C [15]: 74.2%
viability, T/C [16]: 59.1%
viability, T/C [17]: 22.6%
viability, T/C [18]: 10.5%
viability, T/C [19]: 23.9%
viability, T/C [20]: 25.9%
viability, T/C [21]: 24.3%
viability, T/C [22]: 24.7%
viability, T/C [23]: 19.7%
viability, T/C [24]: 12.6%
viability, T/C [25]: 0.89%
viability, T/C [26]: 0.78%
viability, T/C [27]: 0.7%
viability, T/C [28]: 1.08%
viability, T/C [29]: 1.18%
viability, T/C [30]: 1.33%
viability, T/C [31]: 1.91%
viability, T/C [32]: 1.72%
viability, T/C [33]: 1.28%
viability, T/C [34]: 1.01%
viability, T/C [35]: 1.48%
viability, T/C [36]: 2.05%
viability, T/C [37]: 0.93%
viability, T/C [38]: 0.87%
viability, T/C [39]: 1.19%
viability, T/C [40]: 1.26%
viability, T/C [41]: 1.01%
viability, T/C [42]: 1.14%

CC(=O)O[C@H]1C(=O)[C@@]2(C)[C@H]([C@H](OC(=O)c3ccccc3)[C@]3(O)C[C@H](OC(=O)[C@H](O)[C@@H](NC(=O)c4ccccc4)c4ccccc4)C(C)=C1C3(C)C)[C@]1(OC(C)=O)CO[C@@H]1C[C@@H]2O + CN1CCN(c2cc(C(=O)Nc3cc4cc(-c5cnn(C)c5)ccc4cn3)ccn2)CC1
IC50 [1]: < 31.6 nM
IC50 [2]: < 31.6 nM
IC50 [3]: < 31.6 nM
IC50 [4]: < 31.6 nM
IC50 [5]: < 31.6 nM
IC50 [6]: < 31.6 nM
viability, T/C [7]: 15.6%
viability, T/C [8]: 13.7%
viability, T/C [9]: 8.66%
viability, T/C [10]: 12.4%
viability, T/C [11]: 9.25%
viability, T/C [12]: 8.97%
viability, T/C [13]: 14.4%
viability, T/C [14]: 14.6%
viability, T/C [15]: 11.3%
viability, T/C [16]: 11.4%
viability, T/C [17]: 10.2%
viability, T/C [18]: 10.2%
viability, T/C [19]: 13.3%
viability, T/C [20]: 13.2%
viability, T/C [21]: 12.5%
viability, T/C [22]: 12.5%
viability, T/C [23]: 13.6%
viability, T/C [24]: 12.1%
viability, T/C [25]: 2.45%
viability, T/C [26]: 1.65%
viability, T/C [27]: 0.61%
viability, T/C [28]: 3.85%
viability, T/C [29]: 1.22%
viability, T/C [30]: 0.69%
viability, T/C [31]: 0.85%
viability, T/C [32]: 1.39%
viability, T/C [33]: 0.92%
viability, T/C [34]: 2.55%
viability, T/C [35]: 2.07%
viability, T/C [36]: 1.24%
viability, T/C [37]: 1.95%
viability, T/C [38]: 3.43%
viability, T/C [39]: 0.65%
viability, T/C [40]: 0.96%
viability, T/C [41]: 1.3%
viability, T/C [42]: 0.72%

O=c1[nH]cc(F)c(=O)[nH]1
viability, T/C (compound 0.0316 µM): 99.2% and 100%
viability, T/C (compound 0.1 µM): 84.2% and 98.6%
viability, T/C (compound 0.316 µM): 99% and 94.5%
viability, T/C (compound 1 µM): 93.7% and 97%
viability, T/C (compound 3.16 µM): 108% and 102%
viability, T/C (compound 10 µM): 65.2% and 63%
IC50 (curve of compound): > 10000 nM

CC(CO)NC(=O)c1cc(-c2ccc(Cl)cc2)nn(-c2cnn(C)c2)c1=O (centres undefined)
viability, T/C (compound 0.0316 µM): 84.6% and 120%
viability, T/C (compound 0.1 µM): 80.5% and 91.3%
viability, T/C (compound 0.316 µM): 95.9% and 96.8%
viability, T/C (compound 1 µM): 81% and 88.2%
viability, T/C (compound 3.16 µM): 87.7% and 101%
viability, T/C (compound 10 µM): 115% and 117%
IC50 (curve of compound): > 10000 nM

O=C(c1cc(Cc2n[nH]c(=O)c3ccccc23)ccc1F)N1CCN(C(=O)C2CC2)CC1
viability, T/C (compound 0.0316 µM): 102%
viability, T/C (compound 0.1 µM): 90% and 99.4%
viability, T/C (compound 0.316 µM): 101% and 109%
viability, T/C (compound 1 µM): 114% and 110%
viability, T/C (compound 3.16 µM): 118% and 119%
viability, T/C (compound 10 µM): 126% and 103%
IC50 (curve of compound): > 10000 nM

Cn1ncnc1[C@H]1c2n[nH]c(=O)c3cc(F)cc(c23)N[C@@H]1c1ccc(F)cc1 + CNC(=O)c1ccc(Nc2nc(OC3CCCC3)c3c(-c4ccc5nc(C)oc5c4)c[nH]c3n2)c(OC)c1
IC50 [1]: > 100 nM
IC50 [2]: > 100 nM
IC50 [3]: < 0.316 nM
IC50 [4]: < 0.316 nM
IC50 [5]: < 0.316 nM
IC50 [6]: < 0.316 nM
viability, T/C (second compound 0.0316 µM, first compound 0.000316 µM): 94.7%
viability, T/C (second compound 0.0316 µM, first compound 0.001 µM): 103%
viability, T/C (second compound 0.0316 µM, first compound 0.00316 µM): 107%
viability, T/C (second compound 0.0316 µM, first compound 0.01 µM): 105%
viability, T/C [7]: 107%
viability, T/C [8]: 113%
viability, T/C (second compound 0.1 µM, first compound 0.000316 µM): 63.8%
viability, T/C (second compound 0.1 µM, first compound 0.001 µM): 61.7%
viability, T/C (second compound 0.1 µM, first compound 0.00316 µM): 66.6%
viability, T/C (second compound 0.1 µM, first compound 0.01 µM): 62.3%
viability, T/C [13]: 69.9%
viability, T/C [14]: 68.5%
viability, T/C (second compound 0.316 µM, first compound 0.000316 µM): 36.9%
viability, T/C (second compound 0.316 µM, first compound 0.001 µM): 42.5%
viability, T/C (second compound 0.316 µM, first compound 0.00316 µM): 46.3%
viability, T/C (second compound 0.316 µM, first compound 0.01 µM): 46.2%
viability, T/C [19]: 49.4%
viability, T/C [20]: 48.6%
viability, T/C (second compound 1 µM, first compound 0.000316 µM): 27%
viability, T/C (second compound 1 µM, first compound 0.001 µM): 31.4%
viability, T/C (second compound 1 µM, first compound 0.00316 µM): 31.4%
viability, T/C (second compound 1 µM, first compound 0.01 µM): 33.2%
viability, T/C [25]: 40%
viability, T/C [26]: 30.2%
viability, T/C (second compound 3.16 µM, first compound 0.000316 µM): 27.1%
viability, T/C (second compound 3.16 µM, first compound 0.001 µM): 27.8%
viability, T/C (second compound 3.16 µM, first compound 0.00316 µM): 31.1%
viability, T/C (second compound 3.16 µM, first compound 0.01 µM): 30.9%
viability, T/C [31]: 33%
viability, T/C [32]: 30.7%
viability, T/C (second compound 10 µM, first compound 0.000316 µM): 30.3%
viability, T/C (second compound 10 µM, first compound 0.001 µM): 29.3%
viability, T/C (second compound 10 µM, first compound 0.00316 µM): 31.9%
viability, T/C (second compound 10 µM, first compound 0.01 µM): 30.9%
viability, T/C [37]: 36.2%
viability, T/C [38]: 32.3%

O=c1[nH]cc(F)c(=O)[nH]1 + CN1CCN(c2cc(C(=O)Nc3cc4cc(-c5cnn(C)c5)ccc4cn3)ccn2)CC1
IC50 [1]: > 10000 nM
IC50 [2]: 6160 nM
IC50 [3]: < 31.6 nM
IC50 [4]: < 31.6 nM
IC50 [5]: < 31.6 nM
IC50 [6]: < 31.6 nM
viability, T/C [7]: 86.8%
viability, T/C [8]: 85.2%
viability, T/C [9]: 101%
viability, T/C [10]: 86.2%
viability, T/C [11]: 73%
viability, T/C [12]: 56.3%
viability, T/C [13]: 81.4%
viability, T/C [14]: 76.6%
viability, T/C [15]: 87%
viability, T/C [16]: 82.6%
viability, T/C [17]: 62.6%
viability, T/C [18]: 40.8%
viability, T/C [19]: 21.7%
viability, T/C [20]: 19.2%
viability, T/C [21]: 22.6%
viability, T/C [22]: 23.1%
viability, T/C [23]: 23.5%
viability, T/C [24]: 21%
viability, T/C [25]: 1.33%
viability, T/C [26]: 0.66%
viability, T/C [27]: 0.91%
viability, T/C [28]: 1.78%
viability, T/C [29]: 1.34%
viability, T/C [30]: 1.32%
viability, T/C [31]: 3.16%
viability, T/C [32]: 0.66%
viability, T/C [33]: 1.53%
viability, T/C [34]: 0.93%
viability, T/C [35]: 2.49%
viability, T/C [36]: 0.81%
viability, T/C [37]: 3.05%
viability, T/C [38]: 0.66%
viability, T/C [39]: 0.92%
viability, T/C [40]: 1.07%
viability, T/C [41]: 0.96%
viability, T/C [42]: 0.38%
